Activity calls are given as the source filed them.
How the values were obtained:
[1] = test system: Echinochloa crus-galli; experiment: Post-emergence herbicidal activity against Echinochloa crus-galli (barnyard grass) assessed as visual injury at 0.5 kg/ha after 9 days relative to control; format: functional
[2] = test system: Echinochloa crus-galli; experiment: Pre-emergence herbicidal activity against Echinochloa crus-galli (barnyard grass) assessed as visual injury at 1 kg/ha after 16 days relative to control; format: functional
[3] = test system: Helianthus annuus; experiment: Pre-emergence growth inhibition of Helianthus annuus (sunflower) after 16 days; format: functional
[4] = test system: Ipomoea hederacea; experiment: Post-emergence herbicidal activity against Ipomoea hederacea (ivy-leaved morning glory) assessed as stunting at 0.5 to 4 kg/ha after 9 days; format: functional, organism-based
[5] = test system: Agrostis stolonifera var. palustris; experiment: Herbicidal activity against Agrostis stolonifera var. palustris assessed as visual injury at 0.008 ppm after 9 days relative to control; format: functional
[6] = test system: Echinochloa crus-galli; experiment: Pre-emergence herbicidal activity against Echinochloa crus-galli (barnyard grass) assessed as stunting at 0.5 to 4 kg/ha after 16 days; format: functional, organism-based
[7] = test system: Abutilon theophrasti; experiment: Herbicidal activity against Abutilon theophrasti (velvetleaf) assessed as visual injury at 10 ug/seedling applied to leaf after 1 week relative to control; format: functional
[8] = test system: Avena fatua; experiment: Post-emergence growth inhibition of Avena fatua assessed as visual injury at 2 kg/ha after 9 days relative to control; format: functional; set-up: scale not given: the % may be the effect or the level left
[9] = test system: Agrostis stolonifera var. palustris; experiment: Herbicidal activity against Agrostis stolonifera var. palustris after 9 days; format: functional
[10] = test system: Abutilon theophrasti; experiment: Herbicidal activity against Abutilon theophrasti (velvetleaf) assessed as visual injury at 10 ug/seedling applied to meristem after 1 week relative to control; format: functional
[11] = test system: Avena fatua; experiment: Pre-emergence growth inhibition of Avena fatua assessed as stunting at 0.5 to 4 kg/ha after 16 days; format: functional, organism-based
[12] = test system: Avena fatua; experiment: Post-emergence growth inhibition of Avena fatua after 9 days; format: functional
[13] = test system: Agrostis stolonifera var. palustris; experiment: Herbicidal activity against Agrostis stolonifera var. palustris assessed as visual injury at 25 ppm after 9 days relative to control; format: functional
[14] = test system: Helianthus annuus; experiment: Pre-emergence growth inhibition of Helianthus annuus (sunflower) assessed as visual injury at 1 kg/ha after 16 days relative to control; format: functional; set-up: scale not given: the % may be the effect or the level left
[15] = test system: Ipomoea hederacea; experiment: Post-emergence herbicidal activity against Ipomoea hederacea (ivy-leaved morning glory) assessed as wilting at 0.5 to 4 kg/ha after 9 days; format: functional, organism-based
[16] = test system: Avena fatua; experiment: Pre-emergence growth inhibition of Avena fatua assessed as meristematic at 0.5 to 4 kg/ha after 16 days; format: functional, organism-based
[17] = test system: Echinochloa crus-galli; experiment: Pre-emergence herbicidal activity against Echinochloa crus-galli (barnyard grass) assessed as visual injury at 2 kg/ha after 16 days relative to control; format: functional
[18] = test system: Ipomoea hederacea; experiment: Pre-emergence herbicidal activity against Ipomoea hederacea (ivy-leaved morning glory) assessed as visual injury at 1 kg/ha after 16 days relative to control; format: functional
[19] = test system: Ipomoea hederacea; experiment: Pre-emergence herbicidal activity against Ipomoea hederacea (ivy-leaved morning glory) assessed as visual injury at 0.5 kg/ha after 16 days relative to control; format: functional
[20] = test system: Echinochloa crus-galli; experiment: Post-emergence herbicidal activity against Echinochloa crus-galli (barnyard grass) after 9 days; format: functional
[21] = test system: Avena fatua; experiment: Post-emergence growth inhibition of Avena fatua assessed as wilting at 0.5 to 4 kg/ha after 9 days; format: functional, organism-based
[22] = test system: Ipomoea hederacea; experiment: Herbicidal activity against Ipomoea hederacea (ivy-leaved morning glory) assessed as visual injury at 10 ug/seedling applied to meristem after 1 week relative to control; format: functional
[23] = test system: Ipomoea hederacea; experiment: Pre-emergence herbicidal activity against Ipomoea hederacea (ivy-leaved morning glory) assessed as meristematic at 0.5 to 4 kg/ha after 16 days; format: functional, organism-based
[24] = test system: Helianthus annuus; experiment: Post-emergence growth inhibition of Helianthus annuus (sunflower) assessed as wilting at 0.5 to 4 kg/ha after 9 days; format: functional, organism-based
[25] = test system: Abutilon theophrasti; experiment: Herbicidal activity against Abutilon theophrasti (velvetleaf) assessed as visual injury at 100 ug/seedling applied to leaf after 1 week relative to control; format: functional
[26] = test system: Ipomoea hederacea; experiment: Herbicidal activity against Ipomoea hederacea (ivy-leaved morning glory) assessed as visual injury at 100 ug/seedling applied to meristem after 1 week relative to control; format: functional
[27] = test system: Agrostis stolonifera var. palustris; experiment: Herbicidal activity against Agrostis stolonifera var. palustris assessed as root tip puffing after 9 days by agarose-based test; format: functional, organism-based
[28] = test system: Ipomoea hederacea; experiment: Post-emergence herbicidal activity against Ipomoea hederacea (ivy-leaved morning glory) assessed as visual injury at 0.5 kg/ha after 9 days relative to control; format: functional
[29] = test system: Helianthus annuus; experiment: Pre-emergence growth inhibition of Helianthus annuus (sunflower) assessed as visual injury at 2 kg/ha after 16 days relative to control; format: functional; set-up: scale not given: the % may be the effect or the level left
[30] = test system: Helianthus annuus; experiment: Pre-emergence growth inhibition of Helianthus annuus (sunflower) assessed as meristematic at 0.5 to 4 kg/ha after 16 days; format: functional, organism-based
[31] = test system: Ipomoea hederacea; experiment: Herbicidal activity against Ipomoea hederacea (ivy-leaved morning glory) assessed as visual injury at 1 ug/seedling applied to cotyledon after 1 week relative to control; format: functional
[32] = test system: Helianthus annuus; experiment: Post-emergence growth inhibition of Helianthus annuus (sunflower) assessed as visual injury at 4 kg/ha after 9 days relative to control; format: functional; set-up: scale not given: the % may be the effect or the level left
[33] = test system: Helianthus annuus; experiment: Post-emergence growth inhibition of Helianthus annuus (sunflower) assessed as meristematic at 0.5 to 4 kg/ha after 9 days; format: functional, organism-based
[34] = test system: Abutilon theophrasti; experiment: Herbicidal activity against Abutilon theophrasti (velvetleaf) assessed as visual injury at 1 ug/seedling applied to leaf after 1 week relative to control; format: functional
[35] = test system: Ipomoea hederacea; experiment: Post-emergence herbicidal activity against Ipomoea hederacea (ivy-leaved morning glory) assessed as visual injury at 1 kg/ha after 9 days relative to control; format: functional
[36] = test system: Helianthus annuus; experiment: Pre-emergence growth inhibition of Helianthus annuus (sunflower) assessed as stunting at 0.5 to 4 kg/ha after 16 days; format: functional, organism-based
[37] = test system: Lemna minor; experiment: Herbicidal activity against Lemna minor (common duckweed) assessed as visual injury at 0.2 ppm after 9 days relative to control; format: functional
[38] = test system: Echinochloa crus-galli; experiment: Post-emergence herbicidal activity against Echinochloa crus-galli (barnyard grass) assessed as meristematic at 0.5 to 4 kg/ha after 9 days; format: functional, organism-based
[39] = test system: Avena fatua; experiment: Pre-emergence growth inhibition of Avena fatua assessed as visual injury at 0.5 kg/ha after 16 days relative to control; format: functional; set-up: scale not given: the % may be the effect or the level left
[40] = test system: Helianthus annuus; experiment: Pre-emergence growth inhibition of Helianthus annuus (sunflower) assessed as visual injury at 0.5 kg/ha after 16 days relative to control; format: functional; set-up: scale not given: the % may be the effect or the level left
[41] = test system: Lemna minor; experiment: Herbicidal activity against Lemna minor (common duckweed) after 9 days; format: functional
[42] = test system: Lemna minor; experiment: Herbicidal activity against Lemna minor (common duckweed) assessed as visual injury at 5 ppm after 9 days relative to control; format: functional
[43] = test system: Helianthus annuus; experiment: Herbicidal activity against Helianthus annuus (sunflower) assessed as visual injury at 100 ug/seedling applied to cotyledon after 1 week relative to control; format: functional
[44] = test system: Ipomoea hederacea; experiment: Herbicidal activity against Ipomoea hederacea (ivy-leaved morning glory) assessed as visual injury at 10 ug/seedling applied to cotyledon after 1 week relative to control; format: functional
[45] = test system: Lemna minor; experiment: Herbicidal activity against Lemna minor (common duckweed) assessed as visual injury at 25 ppm after 9 days relative to control; format: functional
[46] = test system: Helianthus annuus; experiment: Herbicidal activity against Helianthus annuus (sunflower) assessed as visual injury at 1 ug/seedling applied to meristem after 1 week relative to control; format: functional
[47] = test system: Echinochloa crus-galli; experiment: Post-emergence herbicidal activity against Echinochloa crus-galli (barnyard grass) assessed as visual injury at 4 kg/ha after 9 days relative to control; format: functional
[48] = test system: Abutilon theophrasti; experiment: Herbicidal activity against Abutilon theophrasti (velvetleaf) assessed as visual injury at 100 ug/seedling applied to meristem after 1 week relative to control; format: functional

CN1C(=O)[C@](O)(Cc2cccc(O)c2)N(C)C(=O)[C@@H]1Cc1c[nH]c2cccc([N+](=O)[O-])c12 [THAXTOMIN A]
75%: Activity [10]
active: Activity [4] | Activity [6] | Activity [11] | Activity [15] | Activity [16] | Activity [21] | Activity [23] | Activity [24] | Activity [27] | Activity [30] | Activity [33] | Activity [36] | Activity [38]
85%: Activity [32] | Activity [47]
12 ppb: GR50 [9]
95%: Activity [37]
<500 g/ha: GR50 [3]
10%: Activity [1]
20%: Activity [8]
0%: Activity [7] | Activity [25] | Activity [31] | Activity [34] | Activity [43] | Activity [44]
5 ppb: GR50 [41]
2 kg/ha: GR50 [12] | GR50 [20]
50%: Activity [5] | Activity [46]
100%: Activity [13] | Activity [14] | Activity [17] | Activity [18] | Activity [19] | Activity [29] | Activity [39] | Activity [42] | Activity [45]
70%: Activity [28] | Activity [40]
80%: Activity [22] | Activity [26] | Activity [35] | Activity [48]
98%: Activity [2]

From ChEMBL document CHEMBL3046609, “Herbicidal properties of the thaxtomin group of phytotoxins” (2001)
